Measured values taken from patent US4394388A, “Method for the control of cattle grubs employing m-phenoxybenzyl and .alpha ” (American Cyanamid Company, priority 1981, dated 1983).

Tested on: Cuterebra sp.
Experiment: In vivo larvicidal activity against Cuterebra sp. in artificially infested mice (dermal dip)
Conditions: mice infested with 5 newly-hatched larvae, body dipped in emulsion 48 h later, larvae examined four days after treatment; for Dermal (mice) Dosage % LC50: concentration killing 50% of larvae; for Dermal (mice) Dosage % LC90: concentration killing 90% of larvae
Method: The larvidical activity of the compounds of the invention may be conveniently evaluated by a method accepted by the U.S. Agricultural Research Service, in which mice infected with Cuterebra spp. are treated topically with the compounds under evaluation.
White mice are artificially infested nasally, buccally, or ocularly with 5 newly-hatched larvae of Cuterebra sp. For dermal tests, 48 hours later a plastic collar is placed around the neck of each male mouse, and the portion of the body behind the collar is dipped in 200 ml of an emulsion of a test compound. A standard emulsifiable concentrate consists of 25 parts of test compound, 65 parts of xylene and 10 parts octylphenoxy polyethoxy ethanol of average molecular weight equal to 628 and having from 9 to 10 ethylene oxide units.
The skin of each mouse is examined carefully for encapsulated live larvae four days after treatment. Effectiveness of the treatments is determined by comparing numbers of larvae encapsulated in treated mice with numbers found in untreated control mice. Usually 3 mice/concentration are treated. if mice or the larvae are killed at the initial concentration of 1%, lower concentrations (0.6, 0.3, 0.2, 0.1%, etc.) are tested until there is no systemic activity or the mice survive.
Mortality data are subjected to log-prohibit analysis in order to determine dosages or concentrations that kill 50 or 90% of the larvae.

SMILES | Dermal (mice) Dosage % LC50 | Dermal (mice) Dosage % LC90
CC(C)C(C(=O)OC(C#N)c1cccc(Oc2ccccc2)c1)c1ccc(OC(F)F)cc1 (racemic) [(±)-α-cyano-m-phenoxybenzyl (+)-α-isopropyl-4-difluoromethox] [(±)-α-Cyano-m-phenoxybenzyl(+)-α-isopropyl 4-difluoromethoxyphenylacetate] | .0030% | .0056%
CC(C)C(C(=O)OC(C#N)c1cccc(Oc2ccccc2)c1)c1ccc(OC(F)F)cc1 (stereo not drawn) [α-cyano-m-phenoxybenzyl α-isopropyl-4-difluoromethoxyphenyla] [α-Cyano-m-phenoxybenzyl α-isopropyl-4-difluoromethoxyphenylacetate] | .0067% | .015%
